From the NIST ThermoML archive (doi:10.1021/je800159w)

Columns and labels:
[1] = xn = mol fraction of the nth substance listed; details: 101 kPa, Liquid
[2] = refractive index (Na D-line) (dimensionless); xn = mol fraction of the nth substance listed; details: 298.15 K, 101 kPa, Liquid, Standard Abbe refractometry

CCO [ethanol] + CCOS(=O)(=O)[O-].CC[n+]1cccc(C)c1
[1], x1 = 1
Details	mass density [kg/m3]	viscosity [mPa·s]
298.15 K	785.46	1.082
313.15 K	772	0.827
328.15 K	758.55	0.641

Details	refractive index
[2], x1 = 1	1.36023

CCOS(=O)(=O)[O-].CC[n+]1cccc(C)c1 [1-ethyl-3-methylpyridinium ethylsulfate] + O
[1]
Details	mass density, 298.15 K [kg/m3]	mass density, 313.15 K [kg/m3]	mass density, 328.15 K [kg/m3]	viscosity, 298.15 K [mPa·s]	viscosity, 313.15 K [mPa·s]	viscosity, 328.15 K [mPa·s]
x2 = 0.0526	1221.69	1211.82	1202.02	127.6	60.5	34.93
x2 = 0.1412	1220.12	1210.22	1200.35	102.1	50.28	29.83
x2 = 0.2445	1217.8	1207.83	1198.02	77.9	39.91	23.49
x2 = 0.3233	1215.58	1205.62	1195.72	62.3	32.92	19.76
x2 = 0.4174	1212.21	1202.21	1192.23	46.87	24.86	15.51
x2 = 0.4972	1208.39	1198.31	1188.24	36.11	20.36	12.78
x2 = 0.588	1202.53	1192.32	1182.14	26.83	15.52	9.894
x2 = 0.6975	1191.35	1180.92	1170.42	17.72	10.5	6.847
x2 = 0.7928	1174.05	1163.41	1152.61	11.18	6.778	4.508
x2 = 0.9005	1129.44	1119.24	1108.66	4.927	3.161	2.197
x2 = 0.9484	1086.2	1077.5	1068	2.717	1.818	1.315

[2]
Details	refractive index
x2 = 0.0526	1.50583
x2 = 0.1412	1.50427
x2 = 0.2445	1.50193
x2 = 0.3233	1.49986
x2 = 0.4174	1.49685
x2 = 0.4972	1.49329
x2 = 0.588	1.48806
x2 = 0.6975	1.47838
x2 = 0.7928	1.46398
x2 = 0.9005	1.42959
x2 = 0.9484	1.39796
